A word on the inhibition: it is the drop in the measured response relative to a control, in per cent.

Like-named read-outs stand apart in the source and are kept apart here. Where a SMILES comes first, the peptide text is derived from it. [ ]: non-standard residue; d: D form. The star is where a group is joined. Dip = N[C@H](C(=O)O)C(c1ccccc1)c1ccccc1; Cbz = O=C(OCc1ccccc1)*; CH2F = FC*

The source of these data is publication PMC8041284, “Tunable Methacrylamides for Covalent Ligand Directed Release Chemistry” (Journal of the American Chemical Society, 2021).

The test addresses BTK (Homo sapiens, UniProt Q06187). Description: biochemical.
[1] abbreviates: read-out: BTK inhibition (%), 0.75 uM BTK, […] probe 3l, 15 min preincubation.

BTK, sequence (Q06187 402-655 limits assumed): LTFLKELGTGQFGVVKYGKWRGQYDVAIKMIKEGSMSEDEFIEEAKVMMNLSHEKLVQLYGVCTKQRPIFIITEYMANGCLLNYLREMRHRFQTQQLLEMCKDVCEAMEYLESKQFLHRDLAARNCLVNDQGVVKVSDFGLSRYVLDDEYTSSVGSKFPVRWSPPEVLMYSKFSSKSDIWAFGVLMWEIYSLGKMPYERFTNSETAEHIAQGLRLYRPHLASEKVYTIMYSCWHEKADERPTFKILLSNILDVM

As to `CC(C)[C@H](NC(=O)OCc1ccccc1)C(=O)N[C@@H](C)C(=O)N[C@@H](CC(=O)O)C(=O)CF` [PCM-0215591] (Cbz-Val-Ala-Asp-CH2F), under setting [1], the inhibition at 10 µM is -5.4%.
Still for that read-out and setting: the figure for `O=C(CNc1ccc2ccccc2c1)N/N=C/c1cc(Br)c(O)c(Br)c1O` [PCM-0215592] is 47.9%.
Consider `O=c1c(-n2ccnn2)c[nH]n1-c1cc(N2CCOCC2)ncn1` [PCM-0215593], for which the inhibition at 10 µM under setting [1] is -16.2%.
With `COc1ccc(S(=O)(=O)Nc2nc(-c3cccc([N+](=O)[O-])c3)cs2)cc1OC` [PCM-0215595], the inhibition at 10 µM under setting [1] came out at 7.7%.
On the same count and under the same terms, in the case of `NC1=NC(=O)/C(=C/c2ccc(O)cc2)S1` [PCM-0215596] it was 17%; in that of `O=C(O)c1ccc(CN2CCC(CN[C@@H]3C[C@H]3c3ccccc3)CC2)cc1` [PCM-0215597], 0.8%.
Same read-out and setting: in the case of `CC(C)[C@H](NC(=O)c1ccc2ccccc2n1)C(=O)N[C@@H](CC(=O)O)C(=O)COc1c(F)cccc1F` [PCM-0215598] it was 7.7%; in that of `CC1CC(=O)c2c(ccc3c2C(=O)c2cccc(O)c2C3=O)C1` (stereo not drawn) [PCM-0215599], -3.1%.
`O=C(O)CNC(=O)C1C(=O)N(C2CCCCC2)C(=O)N(C2CCCCC2)C1=O` [PCM-0215600]: the inhibition at 10 µM (read-out: BTK inhibition (%)) amounted to 13.9%.
Consider `COC1CCC(N2C(=O)CNc3ncc(-c4ccc(C(C)(C)O)nc4)nc32)CC1` (stereo not drawn) [PCM-0215601], for which, under setting [1], the inhibition at 10 µM was determined as 15.9%.
On the same count and under the same terms, the figure for `OC(c1cc(-c2ccc(Cl)cc2)nc2ccccc12)C1CCCCN1` (stereo not drawn) [PCM-0215603] is 19.3%; for `CC(C)COc1ccc(CNC(=O)N(Cc2ccc(F)cc2)C2CCN(C)CC2)cc1` [PCM-0215604] it is -3.9%; for `N[C@@H](CSCCB(O)O)C(=O)O` [PCM-0215605] it is -5.4%.
Same read-out and setting: in the case of `Cc1[nH]nc(C(F)(F)F)c1Cc1sc2c(c1C(=O)N1C[C@](C)(O)CO1)c(=O)n(C)c(=O)n2C(C)C` [PCM-0215606] it was 6.9%; in that of `COc1cc(OCc2cccc(-c3ccccc3)c2C)cc(OC)c1CN1CCCC[C@H]1C(=O)O` [PCM-0215607], -35.2%; in that of `CN1CCN(c2ccc(-c3ccncc3-c3cc(F)c(O)c(F)c3)cc2)CC1` [PCM-0215608], 6.2%.
The same measure, in the same setting: the figure for `Cn1ncc(Cl)c1-c1cc(C(=O)N[C@H](CN)Cc2ccc(F)c(F)c2)oc1Cl` [PCM-0215609] is -7.6%.
As to `COc1cccc(-c2cc(NCc3ccc4c(c3)OCO4)nc(N)n2)c1` [PCM-0215610], the inhibition at 10 µM under setting [1] was -7.7%.
Still for that read-out and setting: the figure for `CC(C)(O)c1coc(S(=O)(=O)NC(=O)Nc2c3c(cc4c2CCC4)CCC3)c1` [PCM-0215611] is -0.9%.
Same read-out and setting: the figure for `CN1CCN(c2ccc(Nc3ncc4cc(C#N)c(=O)n(C5CCCC5)c4n3)cc2)CC1` [PCM-0215612] is 19.3%.
Same read-out and setting: in the case of `N#Cc1cccc(-c2c[nH]c3ncnc(N4CCOCC4)c23)c1` [PCM-0215613] it was -8.3%; in that of `CC(C)(O)CNc1ncc(-c2ccnc(Nc3ccnc(Cl)c3)n2)c(CC2CC2)n1` [PCM-0215614], -14.5%.
With `Cc1cc(N2C[C@@H](C)N[C@@H](C)C2)ncc1-c1ccc(-c2nc3c(ccn3C)c(=O)[nH]2)cc1` [PCM-0215615], the inhibition at 10 µM under setting [1] amounted to 7.7%.
On the same count and under the same terms, in the case of `Cc1ccc2nc(CN(CCN(Cc3nc4ccc(C)cc4[nH]3)Cc3nc4ccc(C)cc4[nH]3)Cc3nc4ccc(C)cc4[nH]3)[nH]c2c1` [PCM-0215616] it was 95.8%.
The same measure, in the same setting: the figure for `CNS(=O)(=O)CC1CCC(N(C)c2ncnc3[nH]ccc23)CC1` (stereo not drawn) [PCM-0215617] is 9.7%.
Same read-out and setting: the figure for `O=C(Oc1cccc(F)c1OC(=O)c1cccc(O)c1)c1cccc(O)c1` [PCM-0215618] is -5.4%.
As to `Cc1ccc(OCC(O)C(C)NC(C)C)c2c1CCC2` (stereo not drawn) [PCM-0215619], the inhibition at 10 µM under setting [1] is 13.9%.
On the same count and under the same terms, in the case of `C[C@@H](NC(=O)c1ncnc(N)c1Cl)c1ncc(C(=O)Nc2cc(C(F)(F)F)c(Cl)cn2)s1` [PCM-0215620] it was -12.4%.
Turning to `NCCCC[C@H](NC(=O)[C@@H](NC(=O)[C@H](Cc1c[nH]c2ccccc12)NC(=O)[C@H](CCCCN)NC(=O)[C@H](CCCCN)NC(=O)[C@H](Cc1c[nH]c2ccccc12)NC(=O)[C@H](Cc1c[nH]c2ccccc12)NC(=O)[C@H](CCCCN)NC(=O)[C@@H](N)CCCCN)C(c1ccccc1)c1ccccc1)C(N)=O` [PCM-0215623] (H-KKWWKKW[Dip]K-NH2), under setting [1], the inhibition at 10 µM is -11.1%.
Same read-out and setting: in the case of `C[C@H](Oc1ccc(S(C)(=O)=O)cc1C(=O)N1CCN(c2ncc(C(F)(F)F)cc2F)CC1)C(F)(F)F` [PCM-0215624] it was -20.1%; in that of `CCn1cc(C(=O)O)c(=O)c2c(N)c(F)c(NC3CCCCC3)cc21` [PCM-0215625], 5.4%.
Same read-out and setting: in the case of `CCn1c2ccccc2c2cc(CNCc3ccccc3OC)ccc21` [PCM-0215626] it was -27.8%; in that of `CCn1cc(-c2cccc(C(F)(F)F)c2)c2sc(C(N)=NC3CCS(=O)(=O)CC3)cc2c1=O` [PCM-0215627], 2.3%.
The same measure, in the same setting: in the case of `Nc1ncc(-c2ccnc(Nc3ccncc3)n2)c(CC2CC2)n1` [PCM-0215628] it was 8.3%.
As for `CCCCCCCC(=O)N[C@H](CN1CCCC1)[C@H](O)c1ccc2c(c1)OCCO2` [PCM-0215629], the inhibition at 10 µM under setting [1] was -9.3%.
Regarding `CN(C(=O)CNC(=O)/C=C/c1cccc(Cl)c1)C1CCS(=O)(=O)CC1` [PCM-0215630], the inhibition at 10 µM under setting [1] was -13.9%.
Still for that read-out and setting: the figure for `CCCNC(=O)c1cn2ncnc(Nc3cc(C(=O)NC4CC4)ccc3C)c2c1C` [PCM-0215631] is -13.8%; for `CCCN=C1S/C(=C\c2ccc(OC[C@H](O)CO)c(Cl)c2)C(=O)N1c1ccccc1C` [PCM-0215632] it is 9%; for `Cc1c[nH]c2nc(Nc3ccc(N4CCN(C)CC4)c(F)c3)nc(-c3cccc(CC#N)c3)c12` [PCM-0215633] it is 92.4%.
On the same count and under the same terms, the figure for `CC(C)(CCCCCC(O)CCCCCC(C)(C)C(=O)O)C(=O)O` [PCM-0215634] is 0.7%; for `Cc1cc(Nc2ncc3c(n2)N(C)C(=O)N(c2cc(NC(=O)c4cccc(C(F)(F)F)c4)ccc2C)C3)n(C)n1` [PCM-0215636] it is 104%.
Same read-out and setting: in the case of `CC(C)(O)CNc1nc(Nc2ccnc(C(F)(F)F)c2)nc(-c2cccc(C(F)(F)F)n2)n1` [PCM-0215637] it was 19.3%.
As for `CCC(=C(c1ccc(O)cc1)c1ccc(OCCN(C)C)cc1)c1ccccc1` [PCM-0215638], the inhibition at 10 µM under setting [1] was -11.6%.
On the same count and under the same terms, the figure for `CCN(C)S(=O)(=O)Nc1ccc(F)c(C(=O)c2c[nH]c3ncc(-c4cnc(C5CC5)nc4)cc23)c1F` [PCM-0215639] is 75.9%; for `Clc1ccc(C(c2c[nH]c3ccccc23)c2c[nH]c3ccccc23)cc1` [PCM-0215640] it is 71.7%.
Still for that read-out and setting: in the case of `O=c1[nH]c(=S)[nH]c2nc(-c3ccccc3)c(-c3ccccc3)nc12` [PCM-0215641] it was 17%; in that of `O=C(NCCCNc1nc(Nc2cccc(CN3CCOCC3)c2)ncc1C1CC1)C1CCC1` [PCM-0215642], 21.6%; in that of `CN1CCc2cc(Nc3ncc(C4CC4)c(NCCCNC(=O)C4CCC4)n3)ccc2C1` [PCM-0215643], -8.5%.
On the same count and under the same terms, the figure for `N#CC(C#N)=NNc1ccc(OC(F)(F)F)cc1` [PCM-0215645] is 52.5%; for `O=C(c1ccc(Cl)cc1)N(Cc1ccccc1)C1CCCCC1` [PCM-0215646] it is 20.1%.
For the compound `O=C(CCN1CCN(C(=O)OCc2cc(Cl)cc(Cl)c2)CC1)c1ccc2[nH]c(=O)oc2c1` [PCM-0215647], the inhibition at 10 µM under setting [1] is -4.6%.
On the same count and under the same terms, in the case of `COc1cc(-c2cn(C)c(=O)c3cnccc23)cc(OC)c1CN(C)C` [PCM-0215650] it was -3.1%; in that of `N#Cc1cc2cc(CN3CCC(Nc4ncnc5sc(CC(F)(F)F)cc45)CC3)ccc2[nH]1` [PCM-0215651], 78%; in that of `COCCOc1cnc2ccn([C@H](C)c3nnc4c(F)cc(-c5cnn(C)c5)cn34)c(=O)c2c1` [PCM-0215653], 15.9%.
The same measure, in the same setting: the figure for `Nc1nc(NCCc2ccc(O)cc2)nc2nc(-c3ccco3)nn12` [PCM-0215654] is -4.6%.
On the same count and under the same terms, in the case of `COc1ccc(CCCOC(Cn2ccnc2)c2ccc(OC)cc2)cc1` (stereo not drawn) [PCM-0215655] it was -8.5%; in that of `CN[C@@H]1[C@@H](O)[C@@H](O[C@@H]2[C@@H](O)[C@H](O[C@H]3OC(CN)=CC[C@H]3N)[C@@H](N)C[C@H]2N)OC[C@]1(C)O` [PCM-0215656], 28.9%; in that of `CCOC(=O)c1c2c3c(cccc3[nH]c1=O)C(=O)c1ccccc1-2` [PCM-0215657], -20.1%.
Regarding `CCCCCCNC(=O)Nc1ccc(S(=O)(=O)Nc2ccc(CCNC[C@H](O)COc3ccc(O)cc3)cc2)cc1` [PCM-0215659], the inhibition at 10 µM under setting [1] was 5.4%.
For the compound `Cc1ccc(NC(=S)NNc2c([N+](=O)[O-])cc(C(F)(F)F)cc2[N+](=O)[O-])cc1Cl` [PCM-0215660], the inhibition at 10 µM (read-out: BTK inhibition (%)) amounted to 90.3%.
In the case of `C=CC(=O)Nc1cccc(Oc2nc(Nc3ccc(N4CCN(C)CC4)cc3)nc3ccsc23)c1` [PCM-0215661], under setting [1], the inhibition at 10 µM amounted to 105%.
In the case of `CCOC(=O)COc1ccc(/C=C2\SC(=S)NC2=O)cc1OC` [PCM-0215662], the inhibition at 10 µM under setting [1] was 84.2%.
Same read-out and setting: in the case of `CC(=O)c1ccc(NN=C(C(N)=O)C2=NC(C)(C)Cc3ccccc32)cc1` [PCM-0215663] it was 13.1%; in that of `Nc1ncnc2c1c(I)cn2[C@@H]1O[C@H](CO)[C@@H](O)[C@H]1O` [PCM-0215664], 23.9%.
Same read-out and setting: in the case of `O=C(Nc1ccc(Br)cc1)c1ccc(Br)c(S(=O)(=O)NCc2ccccc2)c1` [PCM-0215665] it was 100%; in that of `Cc1[nH]cnc1CN1CCc2c(c3ccccc3n2C)C1=O` [PCM-0215666], -3.4%.
On the same count and under the same terms, the figure for `Cc1ccccc1-c1cc(N2CCN(C)CC2)ncc1N(C)C(=O)C(C)(C)c1cc(C(F)(F)F)cc(C(F)(F)F)c1` [PCM-0215667] is 2.6%; for `CN(C)c1ccc2c(c1)Sc1cc(N(C)C)ccc1N2` [PCM-0215668] it is 72.6%; for `COc1ccc(N2C(=O)/C(=C\c3ccc([N+](=O)[O-])s3)SC2=S)cc1` [PCM-0215671] it is 22.4%.
